In ChEMBL document CHEMBL4004888, “New derivatives of quinoline-4-carboxylic acid with antiplasmodial activity” (Bioorg Med Chem, 2017):

Assays:
Plasmodium falciparum [1] = test: Antiplasmodial activity against erythrocytic stage of chloroquine-sensitive Plasmodium falciparum NF54 assessed as reduction in [3H]hypoxanthine incorporation after 48 hrs by liquid scintillation counting method; format: functional
L6 = test: Cytotoxicity against rat L6 cells after 70 hrs by alamar blue staining based fluorometric assay; format: cell-based; conditions: L6, 70 h
[2] = Selectivity index, ratio of IC50 for rat L6 cells to IC50 for erythrocytic stage of chloroquine-sensitive Plasmodium falciparum NF54; format: toxicity; conditions: read-out: Ratio IC50
Plasmodium falciparum [3] = test: Antiplasmodial activity against erythrocytic stage of chloroquine/pyrimethamine-resistant Plasmodium falciparum K1 assessed as reduction in [3H]hypoxanthine incorporation after 48 hrs by liquid scintillation counting method; format: functional
[4] = Selectivity index, ratio of IC50 for rat L6 cells to IC50 for erythrocytic stage of chloroquine/pyrimethamine-resistant Plasmodium falciparum K1; format: toxicity; conditions: L6 cells versus erythrocytic stage Plasmodium falciparum K1, read-out: Ratio IC50
Plasmodium berghei [5] = test: Antiplasmodial activity against erythrocytic stage of GFP-fused Plasmodium berghei ANKA infected in NMRI mouse assessed as mouse survival days at 50 mg/kg, ip for 4 days measured up to 30 days post infection (reference value: 4 day); format: functional
Plasmodium berghei [6] = test: Antiplasmodial activity against erythrocytic stage of GFP-fused Plasmodium berghei ANKA infected in NMRI mouse assessed as reduction in parasitaemia at 50 mg/kg, ip for 4 days measured at 24 hrs post last dose by FACS analysis relative to control; format: functional; set-up: scale not given: the % may be the effect or the level left
Plasmodium berghei [7] = test: Antiplasmodial activity against erythrocytic stage of GFP-fused Plasmodium berghei ANKA infected in NMRI mouse assessed as mouse survival days at 10 mg/kg, ip for 4 days measured up to 30 days post infection (reference value: 4 day); format: functional

O=C(c1cc(-c2ccc(CN3CCOCC3)cc2)nc2ccc(F)cc12)N1CCNCC1
IC50 (Plasmodium falciparum [1]): 7.78 µM
IC50 (L6; read-out: IC50): 105 µM
selectivity ratio [2]: 13.5

O=C(Nc1ccccc1)c1cc(-c2ccc(CN3CCOCC3)cc2)nc2ccc(F)cc12
IC50 (Plasmodium falciparum [1]): 1.76 µM
IC50 (L6; read-out: IC50): 17.7 µM
selectivity ratio [2]: 10.1

CC(C)(C)OC(=O)N1CCN(C(=O)c2cc(-c3ccc(CN4CCOCC4)cc3)nc3ccc(F)cc23)CC1
IC50 (Plasmodium falciparum [1]): 13.8 µM
IC50 (L6; read-out: IC50): 29.6 µM
selectivity ratio [2]: 2.14

O=C(c1cc(-c2ccc(CN3CCOCC3)cc2)nc2ccc(F)cc12)N1CCN(c2ccccc2)CC1
IC50 (Plasmodium falciparum [1]): 4.92 µM
IC50 (L6; read-out: IC50): 24.6 µM
selectivity ratio [2]: 5

O=C(Nc1ccc([N+](=O)[O-])cc1)c1cc(-c2ccc(CN3CCOCC3)cc2)nc2ccc(F)cc12
IC50 (Plasmodium falciparum [1]): 0.21 µM
IC50 (L6; read-out: IC50): 13.8 µM
selectivity ratio [2]: 65.7

Fc1ccc2nc(-c3ccc(CN4CCOCC4)cc3)cc(CN3CCN(c4ccccc4)CC3)c2c1
IC50 (Plasmodium falciparum [1]): 13.3 µM
IC50 (L6; read-out: IC50): 31.9 µM
selectivity ratio [2]: 2.4

CN(C)c1ccc(NC(=O)c2cc(-c3ccc(CN4CCOCC4)cc3)nc3ccc(F)cc23)cc1
IC50 (Plasmodium falciparum [1]): 1.09 µM
IC50 (L6; read-out: IC50): 12.4 µM
selectivity ratio [2]: 11.4

O=C(c1cc(-c2ccc(CN3CCOCC3)cc2)nc2ccc(F)cc12)N1CCN(C(=O)c2cc(-c3ccc(CN4CCOCC4)cc3)nc3ccc(F)cc23)CC1
IC50 (Plasmodium falciparum [1]): 6.73 µM
IC50 (L6; read-out: IC50): 128 µM
selectivity ratio [2]: 19

O=C(NCCN1CCN(c2ccccc2)CC1)c1cc(-c2ccc(CN3CCOCC3)cc2)nc2ccc(F)cc12
IC50 (Plasmodium falciparum [1]): 0.01 µM
IC50 (L6; read-out: IC50): 3.94 µM
IC50 (Plasmodium falciparum [3]): 0.007 µM
selectivity ratio [2]: 394
selectivity ratio [4]: 563
MSD (Plasmodium berghei [5]): 4 days
Activity (Plasmodium berghei [6]): 17.1%

Fc1ccc2nc(-c3ccc(CN4CCOCC4)cc3)cc(CN3CCNCC3)c2c1
IC50 (Plasmodium falciparum [1]): 2.19 µM
IC50 (L6; read-out: IC50): 14.5 µM
selectivity ratio [2]: 6.62

N=C(N)N1CCN(C(=O)c2cc(-c3ccc(CN4CCOCC4)cc3)nc3ccc(F)cc23)CC1
IC50 (Plasmodium falciparum [1]): 49.3 µM
IC50 (L6; read-out: IC50): 210 µM
selectivity ratio [2]: 4.26

CN1CCN(C(=O)c2cc(-c3ccc(CN4CCOCC4)cc3)nc3ccc(F)cc23)CC1
IC50 (Plasmodium falciparum [1]): 5.08 µM
IC50 (L6; read-out: IC50): 135 µM
selectivity ratio [2]: 26.6

CCN(CC)C(=O)c1cc(-c2ccc(CN3CCOCC3)cc2)nc2ccc(F)cc12
IC50 (Plasmodium falciparum [1]): 12.5 µM
IC50 (L6; read-out: IC50): 121 µM
selectivity ratio [2]: 9.68

O=C(NCCN1CCNCC1)c1cc(-c2ccc(CN3CCOCC3)cc2)nc2ccc(F)cc12
IC50 (Plasmodium falciparum [1]): 0.53 µM
IC50 (L6; read-out: IC50): 54.5 µM
selectivity ratio [2]: 103

COc1ccc(NC(=O)c2cc(-c3ccc(CN4CCOCC4)cc3)nc3ccc(F)cc23)cc1
IC50 (Plasmodium falciparum [1]): 0.59 µM
IC50 (L6; read-out: IC50): 6.77 µM
selectivity ratio [2]: 11.5

CC(C)(C)OC(=O)N1CCN(CCNC(=O)c2cc(-c3ccc(CN4CCOCC4)cc3)nc3ccc(F)cc23)CC1
IC50 (Plasmodium falciparum [1]): 0.00021 µM
IC50 (L6; read-out: IC50): 13.5 µM
IC50 (Plasmodium falciparum [3]): 0.00087 µM
selectivity ratio [2]: 64300
selectivity ratio [4]: 15500
MSD (Plasmodium berghei [5]): 8.3 days
Activity (Plasmodium berghei [6]): 98.1%

CN1CCN(Cc2cc(-c3ccc(CN4CCOCC4)cc3)nc3ccc(F)cc23)CC1
IC50 (Plasmodium falciparum [1]): 1.98 µM
IC50 (L6; read-out: IC50): 17.7 µM
selectivity ratio [2]: 8.94

CN1CCN(CCNC(=O)c2cc(-c3ccc(CN4CCOCC4)cc3)nc3ccc(F)cc23)CC1
IC50 (Plasmodium falciparum [1]): 1.09 µM
IC50 (L6; read-out: IC50): 82 µM
selectivity ratio [2]: 75.2

C[C@@H]1CC[C@H]2[C@@H](C)C(=O)O[C@@H]3O[C@@]4(C)CC[C@@H]1[C@]32OO4 [ARTEMISININ]
IC50 (Plasmodium falciparum [3]): 0.0064 µM
selectivity ratio [4]: 70300

O=C(NCCN1CCCC1)c1cc(-c2ccc(CN3CCOCC3)cc2)nc2ccc(F)cc12 [CABAMIQUINE]
IC50 (Plasmodium falciparum [1]): 0.00013 µM
IC50 (L6; read-out: IC50): 28.5 µM
IC50 (Plasmodium falciparum [3]): 0.00022 µM
selectivity ratio [2]: 219000
selectivity ratio [4]: 129000

CCN(CC)CCCC(C)Nc1ccnc2cc(Cl)ccc12 (stereo unspecified) [CHLOROQUINE]
MSD (Plasmodium berghei [7]): 20 days

COc1cc([C@@H]2c3cc4c(cc3[C@H](O)[C@H]3COC(=O)[C@H]23)OCO4)cc(OC)c1OC [PODOFILOX]
IC50 (L6): 0.012 µM
